Measurements: patent US20240373850A1, “Compositions comprising resinous exudate metabolites from plants of the genus Adesmia, used to control and treat infections in plant crops; and methods for controlling infections in plant crops” (PONTIFICIA UNIVERSIDAD CATÓLICA DE VALPARAÍSO, priority 2021, published 2024)
Several values for one entry are separate records, joined by “and”; a condition that tells them apart may be missing. Identical values can stand only once. Like-named read-outs stand apart in the source and are kept apart here.

Key:
[1] = test system: Pseudomonas syringae pv actinidiae code 770; assay: Antibacterial micro-dilution test (MIC), Psa 770; assay type: cell-based; details: read-out: MIC Psa 770
Protocol: (§1) Antibacterial test of secondary metabolites isolated from the resinous exudates of Adesmia plants against the pathogen (Psa), from isolates made in Chile and Italy, also tested on other bacteria of interest, in vitro.
(§2) All strains were cultivated in Nutrient culture medium supplemented with 3% sucrose (SNA), and incubated at 27° C. The bacterial inoculum was produced in Mueller-Hinton (MH) culture medium in glass test tubes and incubated at 27° C. in an orbital shaker at 150 rpm in the dark for 24 hours. A stock solution of each molecule was prepared to obtain a concentration of 2000 mg/L, later they were diluted in a 96-well microplate with MH culture medium and thus obtain the different concentrations of […] of each molecule. The antibacterial activity of the molecules was determined by the method of micro-dilution of the substance to be tested. Four controls were used: negative control (only MH liquid culture medium inoculated with bacteria); positive control (liquid MH culture medium adding Chloramphenicol at the same concentrations tested inoculated with bacteria and in the case of the Italian strain, copper sulfate was added), negative control (1) only substances plus solvent (liquid MH culture medium plus ethanol at 1% without inoculating bacteria) and a white control (only MH liquid culture medium, without inoculating). The bacterial suspension of each of the strains was adjusted to 0.5 McFarland (1×10^8 cfu/ml), inoculating 1.5 μL per well in the microplate and subsequently incubated at 27° C. for 24 hours.
(§3) The absorbances or optical density (O.D) were converted to percentage of antibacterial inhibition (PIAB) using the following formula:
(§4) In addition, […] aliquots of each of the concentrations were swept in a petri dish to observe the presence or absence of Psa colonies after 48 hours.

[2] = test system: Pseudomonas syringae pv actinidiae code 8.43; assay: Antibacterial micro-dilution test (MIC), Psa 8.43; assay type: cell-based; details: read-out: MIC Psa 8.43
Protocol: as §1, §2, §3, §4

[3] = test system: Erwinia carotovora; assay: Antibacterial micro-dilution test (MIC), E.c; assay type: cell-based; details: Pectobacterium carotovorum, read-out: MIC E.c
Protocol: as §1
(§5) All strains were cultivated in Nutrient culture medium supplemented with 3% sucrose (SNA), and incubated at 27° C. The bacterial inoculum was produced in Mueller-Hinton (MH) culture medium in glass test tubes and incubated at 27° C. in an orbital shaker at 150 rpm in the dark for 24 hours. A stock solution of each molecule was prepared to obtain a concentration of 2000 mg/L, later they were diluted in a 96-well microplate with MH culture medium and thus obtain the different concentrations of […] of each molecule. The antibacterial activity of the molecules was determined by the method of micro-dilution of the substance to be tested. […]
(§6) Through the evaluation of absorbance at 600 nm in an Accu Reader M965 spectrophotometer, those treatments that were effective in inhibiting growth compared to the negative control were selected, to subsequently quantify the percentage of inhibition. The absorbances or optical density (O.D) were converted to percentage of antibacterial inhibition (PIAB) using the following formula: […]

[4] = test system: Bacillus subtilis; assay: Antibacterial micro-dilution test (MIC), B.s; assay type: cell-based; details: read-out: MIC B.s
Protocol: as §1, §2, §6

[5] = test system: E. carotovora; assay: Membrane integrity by Sytox Green staining, E. carotovora; assay type: cell-based, Erwinia carotovora; details: 50 ug/mL, 3 hours of incubation, fluorescence microscope
Protocol: FIG. 11: Effect of 2′, 4′ dihydroxychalcone on the integrity of the cell membrane of E. carotovora. The bacteria were incubated in a culture medium at 22 QC in the presence of 30% (v/v) ethanol (a), 5% methanol; 50 ug/mL of the compound against E. carotovora seen in bright field (b) and seen under fluorescence (c) for 3 hours of incubation.
(§7) Determination of the effect of compound 2 4′ dihydroxychalcone (compound No. 4) on the integrity of the membrane of Gram negative and Gram positive bacteria.
(§8) Because several studies have established that phenolic compounds destroy the bacterial membrane, the effect of the major compound […] (compound No. 4) present in the exudate of plants of the Adesmia genus was evaluated, which was attributes the antibacterial activity that they present against Pseudomonas syringae pv actinidiae (Psa). It was tested against Gram-negative bacteria of agricultural importance Erwinia carotovora by Sytox Green staining. […] In this way, through the observation of nuclei stained with Sytox in the fluorescence microscope (100×), it is evident that the mechanism of action of the compound against both the Gram positive bacteria S. aureus and Gram negative E. carotovora is the destruction of the plasma membrane (FIG. 11c).

[6] = test system: S. aureus; assay: Membrane integrity by Sytox Green staining, S. aureus; assay type: cell-based; details: 50 ug/mL, 3 hours of incubation, fluorescence microscope
Protocol: as §7, §8

[7] = test system: Pseudomonas syringae pv actinidiae (Psa) 190770; assay: In vivo antibacterial activity test in Kiwi seedlings, phytopathological evaluation; parameters: species or system Kiwi A. chinensis; details: 500 ug/mL
Text: In vivo antibacterial activity tests of the compounds of the present invention, in Kiwi crops.
It is important to point out that the Chilean patent application 0881-2018 of the same inventors of the present invention, describes a procedure to prepare a composition obtained from resinous exudates of the aerial parts of plants of the genus Adesmia, to control in vitro and in vivo infections. in plant crops. In addition, methods for controlling infections in plant crops are described, which comprise applying said composition to crops infected with various microorganisms. […] For this, Kiwi A. chinensis seedlings from in vitro propagation were used. The bacterium Pseudomonas syringae pv actinidiae (Psa) 190770 used in the in vitro tests was used. The plants were kept in aseptic chambers with 50% relative humidity, under controlled temperature conditions (20° C.±2) and a photoperiod regimen of 12 hours of light and 12 hours of darkness. Both the application of the treatments and inoculation were applied in the summer season. The bacterial inoculum was sprayed on the surface of the leaves of the plants, which had been subjected to small wounds on the leaves. […] Control plants were only sprayed with sterile distilled water and kept isolated from the others treated with Psa.
(§9) The evaluations were made periodically to observe the symptoms of the plant (Table No. 4) and the samples were taken at the third and fourth week from the inoculation, in which the leaves were collected at the moment of beginning to see symptoms or in their defect a month after starting the trial, they were frozen in RNALater® and stored at −80° C. for RNA isolation.

[8] = test system: Pseudomonas syringae pv actinidiae (Psa); assay: Absolute quantification of Psa infecting kiwi plants by qRT-PCR; assay type: in vivo, Kiwi A. chinensis; details: leaves, 3-4 weeks after inoculation, replicate runs; listed as Treatment 3
Protocol: as §9
For this, the total RNA of the problem samples was isolated from 80 to 100 mg of tissue from the leaves of A. chinensis belonging to the applied treatments, which were extracted with the E.Z.N.A.® PLANT RNA Kit using the protocol for difficult samples described by the manufacturer and the concentration of the extracted material was quantified through the Nanodrop equipment. The qRT-PCR was performed using the AriaMx Realtime PCR System equipment, using the Takion Sybrgreen+One step converter kit and specific primers synthesized by IDT (Integrated DNA Technologies) (See Table 6).
The program conditions were 48° C. for 10 min, 95° C. for 3 min, followed by 40 cycles of 95° C. for 10 sec, alignment and extension at 60° C. for 50 sec; then the melting curves 95° C. for 30 sec., 65° C. for 30 sec., and 95° C. for 30 sec. […] The number of copies/ng of Total Psa RNA were calculated through the equation of the straight line provided by the equipment, which was analyzed with the standard curve included in each qRT-PCR run.

[9] = test system: Pseudomonas syringae syringae; assay: Antibacterial micro-dilution test (MIC), Pss; assay type: cell-based; details: MH medium, 27° C., 24 hours
Protocol: as §1, §5, §6

[10] = micro-dilution, MH medium, 27° C., 24 hours

| SMILES | MIC ([1]; 24 h) [µg/mL] | MIC ([2]; 24 h) [µg/mL] | MIC [1, 10] [µg/mL] | MIC [2, 10] [µg/mL] | MIC [9] [µg/mL] | MIC [4, 10] [µg/mL] | other results |
| --- | --- | --- | --- | --- | --- | --- | --- |
| CC(C)=CCc1cc(C(=O)CCc2ccccc2)c(O)cc1O [Compound 1] | ≥ 400 | ≥ 200 | – | – | – | – | – |
| CC(C)=CCc1c(O)cc(O)c2c1O[C@H](c1ccccc1)CC2=O [Compound 2, glabranin] | ≥ 400 | – | – | – | – | – | – |
| CC(C)=CCc1c(O)ccc(C(=O)/C=C/c2ccccc2)c1O [Compound 3, isochordine] | ≥ 1600 | – | – | – | – | – | – |
| O=C(/C=C/c1ccccc1)c1ccc(O)cc1O [Compound 4, 2′,4′-dihydroxychalcone] | ≥ 200 | ≥ 50 | – | – | – | – | MIC ([3]; 24 h): ≥ 10 µg/mL; MIC ([4]; 24 h): ≥ 10 µg/mL; effect on the integrity of the plasmatic membrane [5]: alteration of the plasmatic membrane was observed; effect on the integrity of the plasmatic membrane [6]: alteration of the plasmatic membrane was observed; in vivo inhibition of the disease caused by Psa in Kiwi cultures [7]: in vivo inhibition of the disease; plants without visual symptoms of the disease (level 0, healthy plants) ([7]; preventive treatment): 60%; Percentage of incidence ([7]; preventive, sprayed 24 hours before inoculation): 40%; Level of Incidence according to category (Maximum value 3) ([7]; preventive, sprayed 24 hours before inoculation, damage scale 0-3 of Table No. 4): 0.4; Ct [8]: 29.17 and 27.80 and 30.01 |
| COc1ccc(C(=O)CCc2ccccc2)c(OC)c1 [Compound 9, 2′,4′-dimethoxydihydrochalcone] | – | – | ≥ 400 | ≥ 1600 | ≥ 50 | ≥ 10 | MIC [3, 10]: ≥ 10 µg/mL |
| O=C(/C=C/c1ccccc1)c1c(O)cc(O)cc1O [Compound 10, 2′,4′, 6′-trihydroxy chalcone] | – | – | ≥ 50 | ≥ 50 | ≥ 50 | ≥ 10 | – |
